# Calls of active or inactive are those of the source. No cut-off for these calls is given here.
# How the values were obtained:
# [1] = target: T1, Cadherin-2 (Homo sapiens) (UniProt P19022); assay: Inhibition of N-cadherin-Fc chimeric protein binding to N-cadherin in human SKOV3 cells at 2 mM preincubated for 1 hr followed by N-cadherin-Fc addition measured after 2 hrs by ELISA relative to control; assay type: cell-based; conditions: SK-OV-3
# T1 sequence (whole entry): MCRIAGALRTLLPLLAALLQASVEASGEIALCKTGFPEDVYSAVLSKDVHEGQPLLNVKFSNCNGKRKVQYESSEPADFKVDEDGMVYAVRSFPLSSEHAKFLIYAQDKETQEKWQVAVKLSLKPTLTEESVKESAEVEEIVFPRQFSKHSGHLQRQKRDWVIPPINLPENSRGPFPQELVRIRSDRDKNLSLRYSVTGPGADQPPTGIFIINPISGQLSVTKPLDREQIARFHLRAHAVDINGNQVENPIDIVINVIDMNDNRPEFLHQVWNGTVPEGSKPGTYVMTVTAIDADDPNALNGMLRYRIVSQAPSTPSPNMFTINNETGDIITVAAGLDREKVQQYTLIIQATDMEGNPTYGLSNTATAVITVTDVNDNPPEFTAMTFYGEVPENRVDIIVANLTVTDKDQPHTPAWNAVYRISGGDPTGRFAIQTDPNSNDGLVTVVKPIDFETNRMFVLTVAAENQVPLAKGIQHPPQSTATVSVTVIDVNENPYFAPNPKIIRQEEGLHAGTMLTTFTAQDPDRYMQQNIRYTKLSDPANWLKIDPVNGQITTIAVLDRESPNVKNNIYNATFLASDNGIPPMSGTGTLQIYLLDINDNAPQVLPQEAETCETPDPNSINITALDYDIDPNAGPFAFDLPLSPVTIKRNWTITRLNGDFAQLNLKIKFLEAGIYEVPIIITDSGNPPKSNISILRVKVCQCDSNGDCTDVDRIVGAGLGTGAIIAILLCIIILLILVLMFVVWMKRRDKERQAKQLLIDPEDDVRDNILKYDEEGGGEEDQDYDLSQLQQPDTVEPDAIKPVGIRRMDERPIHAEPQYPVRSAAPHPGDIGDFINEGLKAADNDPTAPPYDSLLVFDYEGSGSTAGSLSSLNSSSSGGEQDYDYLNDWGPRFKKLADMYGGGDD
# [2] = target: T1, Cadherin-2 (Homo sapiens); assay: Inhibition of recombinant N-cadherin-Fc chimeric protein (unknown origin) homodimerization at 10 uM preincubated for 30 mins followed by N-cadherin-Fc addition by surface plasmon resonance analysis relative to control
# [3] = target: T2, Cadherin-1 (Homo sapiens) (UniProt P12830); assay: Inhibition of E-cadherin-Fc chimeric protein binding to E-cadherin in human OAW42 cells at 2 mM preincubated for 1 hr followed by E-cadherin-Fc addition measured after 2 hrs by ELISA relative to control; assay type: cell-based; conditions: OAW-42
# T2 sequence (whole entry): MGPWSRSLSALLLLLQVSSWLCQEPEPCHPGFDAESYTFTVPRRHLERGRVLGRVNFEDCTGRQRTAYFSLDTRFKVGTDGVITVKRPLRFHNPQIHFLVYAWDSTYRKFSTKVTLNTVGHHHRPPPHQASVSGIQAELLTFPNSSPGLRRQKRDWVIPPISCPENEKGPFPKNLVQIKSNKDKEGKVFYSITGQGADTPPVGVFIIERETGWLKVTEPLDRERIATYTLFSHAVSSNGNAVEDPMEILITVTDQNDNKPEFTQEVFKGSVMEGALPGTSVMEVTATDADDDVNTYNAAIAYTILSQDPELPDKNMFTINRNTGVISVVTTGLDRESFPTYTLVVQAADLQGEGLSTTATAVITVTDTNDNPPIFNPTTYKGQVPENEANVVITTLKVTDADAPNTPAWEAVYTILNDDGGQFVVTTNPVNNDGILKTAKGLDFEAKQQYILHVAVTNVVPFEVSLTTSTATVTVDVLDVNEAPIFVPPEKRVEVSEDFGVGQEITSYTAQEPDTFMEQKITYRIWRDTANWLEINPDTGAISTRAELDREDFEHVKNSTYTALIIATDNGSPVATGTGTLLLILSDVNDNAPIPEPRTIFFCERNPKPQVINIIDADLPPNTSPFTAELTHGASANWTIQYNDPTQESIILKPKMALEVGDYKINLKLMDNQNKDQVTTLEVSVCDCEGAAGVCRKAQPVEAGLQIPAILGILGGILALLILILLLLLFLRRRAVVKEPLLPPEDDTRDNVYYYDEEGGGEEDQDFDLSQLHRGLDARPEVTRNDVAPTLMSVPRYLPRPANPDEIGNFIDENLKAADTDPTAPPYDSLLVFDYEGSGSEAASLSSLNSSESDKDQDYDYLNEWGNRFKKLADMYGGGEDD
# [4] = target: T1, Cadherin-2 (Homo sapiens); assay: Inhibition of N-cadherin-Fc chimeric protein binding to N-cadherin in human SKOV3 cells at 1 mM preincubated for 1 hr followed by N-cadherin-Fc addition measured after 2 hrs by ELISA relative to control; assay type: cell-based; conditions: SK-OV-3
# [5] = target: T2, Cadherin-1 (Homo sapiens); assay: Binding affinity to E-cadherin in human OAW42 cells assessed as effect on PI3K/Akt signalling activation by measuring phosphorylation of Akt at Ser-473 residue at 1 to 2 mM by immunoblot analysis; assay type: cell-based; conditions: OAW-42
SMILES,inhibition [1] [%],inhibition [2] [%],inhibition [3] [%],inhibition [4],Activity [5]
CC(=O)N[C@H]1CSSC[C@@H](C(N)=O)NC(=O)[C@H](C(C)C)NC(=O)[C@H](C)NC(=O)[C@H](Cc2c[nH]cn2)NC1=O,50,28,30,inactive,
CC[C@H](C)[C@H](NC(=O)C[C@@H]1NC(=O)[C@H](CNC(=O)[C@@H](N)CC(=O)O)N(Cc2ccccc2)C1=O)C(=O)NC(C)(C)C,84,55,50,65%,Active
